We go through 33 compounds from US20170253607A1, “LONG-ACTING HIV PROTEASE INHIBITOR” (Shionogi & Co., Ltd., priority 2014, published 2017).

Series [1] in a line: Evaluation of total body clearance (CLtot), intravenous administration. It counts as in vivo, Sprague-Dawley (SD). To be noted: rat (SD), intravenous administration 0.5-10 mg/kg; CLtot = dose/AUC. A digest of the protocol:
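Plasma levels quantified by LC/MS/MS after intravenous tail-vein dosing (0.5-10 mg/kg, compound-dependent; n=2-3). AUC from pharmacokinetic analysis; total clearance calculated as dose/AUC.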

The target of series [2] is HIV-1 PR (Human immunodeficiency virus type 1 group M subtype B, UniProt P04585). The series can be described thus: HIV-protease inhibitory activity assay (FRET peptide substrate). Format: biochemical. The conditions noted are these: Test Example 1. A digest of the protocol:
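HIV-1 PR (0.83 ng) preincubated with compounds 20 min at room temperature in 0.1 mol/L NaAc, 0.5 mol/L NaCl, 1 mmol/L EDTA, 1 mmol/L DTT, 0.05% Tween 20, pH 4.8. Cleavage of HiLyte Fluor 488/QXL 520 FRET peptide (2 μmol/L) read after 60 minutes at 485/535 nm; IC50 from four-parameter logistic fit.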

What is called IC50 is the point on the concentration scale where inhibition reaches its midpoint. Low readings indicate inhibition by little substance, high ones a need for much substance. In series [1], `COc1ccc(S(=O)(=O)N(CC(C)C)CC(O)C(Cc2ccc(N3CCC(Oc4ccccc4-c4sc5c(c4C(=O)O)CC(C)(C)CC5)CC3)cc2)NC(=O)OC2COC3(C)OCCC23)cc1` (stereo not drawn) [Compound I-578] gave a rat_CLt of 3.16 mL/min/kg. The same compound gave an IC50 in series [2] of 2.39 nM.
As for `COc1ccc(S(=O)(=O)N(CC(C)C)C[C@@H](O)[C@H](Cc2ccc(N3CC[C@H](Oc4ccccc4-n4nc5c(c4C(=O)O)CC(C)(C)CC5)C3)cc2)NC(=O)O[C@H]2CO[C@@]3(C)OCC[C@@H]23)cc1` [Compound I-596], the rat_CLt in series [1] is recorded as 0.213 mL/min/kg. Also, in series [2], the half-inhibitory concentration (IC50) amounted to 1.54 nM.
The compound `COc1ccc(S(=O)(=O)N(CC(C)C)CC(O)C(Cc2ccc(NCc3c(-c4sc5c(c4C(=O)O)CC(C)(C)CC5)ccc4ccccc34)cc2)NC(=O)OC2COC3(C)OCCC23)cc1` (stereo not drawn) [Compound I-531] displayed a rat_CLt in series [1] of 0.0543 mL/min/kg. Besides, the half-inhibitory concentration (IC50) in series [2] is 6.98 nM.
Taken in the same sequence, the figures for `COc1ccc(S(=O)(=O)N(CC(C)C)CC(O)C(Cc2ccc(NCC3CCCCC3C(=O)Nc3sc4c(c3C(=O)O)CC(C)(C)CC4)cc2)NC(=O)OC2COC3(C)OCCC23)cc1` (stereo not drawn) [Compound I-614] were 0.146 mL/min/kg and 2.91 nM.
In series [1], `COc1ccc(S(=O)(=O)N(CC(C)C)CC(O)C(Cc2ccc(NCc3cccc(C(=O)Nc4sc5c(c4C(=O)O)CC(C)(C)CC5)c3)cc2)NC(=O)OC2COC3(C)OCCC23)cc1` (stereo not drawn) [Compound I-436] gave a rat_CLt of 1.72 mL/min/kg. This compound returned an IC50 in series [2] of 3.17 nM.
For `COc1ccc(S(=O)(=O)N(CC(C)C)CC(O)C(Cc2ccc(N(C)Cc3ccc(C(F)(F)F)cc3-c3sc4c(c3C(=O)O)CC(C)(C)CC4)cc2)NC(=O)OC2COC3(C)OCCC23)cc1` (stereo not drawn) [Compound I-540], the rat_CLt in series [1] was found to be 1.5 mL/min/kg. In series [2], this compound returned a 50% inhibitory concentration (IC50) of 27.8 nM.
Take `COc1ccc(S(=O)(=O)N(CC(C)C)CC(O)C(Cc2ccc(NCC3=C(c4sc5c(c4C(=O)O)CC(C)(C)CC5)CC(C)(C)C3)cc2)NC(=O)OC2COC3(C)OCCC23)cc1` (stereo not drawn) [Compound I-662]: the rat_CLt in series [1] is 1.11 mL/min/kg. Half-maximal inhibition in series [2] (IC50) was put at 2.51 nM.
The compound `COc1ccc(S(=O)(=O)N(CC(C)C)CC(O)C(Cc2ccc(NCc3cc4ccccc4nc3-c3sc4c(c3C(=O)O)CC(C)(C)CC4)cc2)NC(=O)OC2COC3(C)OCCC23)cc1` (stereo not drawn) [Compound I-652] returned a rat_CLt in series [1] of 0.641 mL/min/kg. In series [2], this compound gave an IC50 of 2.46 nM.
In the case of `COc1ccc(S(=O)(=O)N(CC(C)C)CC(O)C(Cc2ccc(N3CCC(Oc4ccccc4C(=O)Nc4sc5c(c4C(=O)O)CC(C)(C)CC5)C3)cc2)NC(=O)OC2COC3(C)OCCC23)cc1` (stereo not drawn) [Compound I-588], in series [1], the rat_CLt came out at 0.291 mL/min/kg. Further, the IC50 in series [2] was determined as 3.29 nM.
Taken in the same sequence, the figures for `COc1ccc(S(=O)(=O)N(CC(C)C)CC(O)C(Cc2ccc(N(C)Cc3cc(C(F)(F)F)ccc3-c3sc4c(c3C(=O)O)CC(C)(C)CC4)cc2)NC(=O)OC2COC3(C)OCCC23)cc1` (stereo not drawn) [Compound I-451] were 0.211 mL/min/kg and 9.46 nM.
Regarding `COc1ccc(S(=O)(=O)N(CC(C)C)CC(O)C(Cc2ccc(N3CCC(Oc4cc(N(C)C)ccc4-c4sc5c(c4C(=O)O)CC(C)(C)CC5)C3)cc2)NC(=O)OC2COC3(C)OCCC23)cc1` (stereo not drawn) [Compound I-606], in series [1], the rat_CLt is recorded as 2.2 mL/min/kg. In series [2], the IC50 is 2.25 nM.
Consider `COc1ccc(S(=O)(=O)N(CC(C)C)CC(O)C(Cc2ccc(NCC3CCCC3c3sc4c(c3C(=O)O)CC(C)(C)CC4)cc2)NC(=O)OC2COC3OCCC23)cc1` (stereo not drawn) [Compound I-877], for which, in series [1], the rat_CLt is 2.31 mL/min/kg. In series [2], this compound had an IC50 of 2.12 nM.
With `COc1ccc(S(=O)(=O)N(CC2CCC2)CC(O)C(Cc2ccc(NCc3ccccc3-c3sc4c(c3C(=O)O)CC(C)(C)CC4)cc2)NC(=O)OC2COC3(C)OCCC23)cc1` (stereo not drawn) [Compound I-474], the rat_CLt in series [1] is given as 1.28 mL/min/kg. In series [2], this compound showed a half-inhibitory concentration (IC50) of 2.14 nM.
`CC1(C)CCc2sc(NC(=O)c3ccccc3CNc3ccc(CC(NC(=O)OC4COC5OCCC45)C(O)CN(CC4CCC4)S(=O)(=O)c4ccc5c(c4)OCO5)cc3)c(C(=O)O)c2C1` (stereo not drawn) [Compound I-861] returned a rat_CLt in series [1] of 0.0804 mL/min/kg. In series [2], this compound gave an IC50 of 2.8 nM.
On to `COc1ccc(S(=O)(=O)N(CC(C)C)CC(O)C(Cc2ccc(NCc3ccc(-c4ccccc4-c4sc5c(c4C(=O)O)CC(C)(C)CC5)cc3)cc2)NC(=O)OC2COC3(C)OCCC23)cc1` (stereo not drawn) [Compound I-530], for which the rat_CLt in series [1] turned out to be 1.57 mL/min/kg. In series [2], this compound showed a 50% inhibitory concentration (IC50) of 8.31 nM.
In series [1], `COc1ccc(S(=O)(=O)N(CC(C)C)CC(O)C(Cc2ccc(N(C)Cc3cc4c(cc3-c3sc5c(c3C(=O)O)CC(C)(C)CC5)OCCO4)cc2)NC(=O)OC2COC3(C)OCCC23)cc1` (stereo not drawn) [Compound I-704] came in with a rat_CLt of 0.724 mL/min/kg. The compound also displayed an IC50 in series [2] of 2.39 nM.
In series [1], `COc1ccc(S(=O)(=O)N(CC(C)C)CC(O)C(Cc2ccc(N(C)Cc3ccc(OC)cc3-c3sc4c(c3C(=O)O)CC(C)(C)CC4)cc2)NC(=O)OC2COC3(C)OCCC23)cc1` (stereo not drawn) [Compound I-490] yielded a rat_CLt of 0.88 mL/min/kg. This compound also had an IC50 in series [2] of 2.01 nM.
Turning to `CC1(C)CCc2sc(NC(=O)c3ccccc3CNc3ccc(CC(NC(=O)OC4COC5(C)OCCC45)C(O)CN(CC4CCCC4)S(=O)(=O)c4ccc5ncsc5c4)cc3)c(C(=O)O)c2C1` (stereo not drawn) [Compound I-601], the rat_CLt in series [1] turned out to be 0.164 mL/min/kg. This compound also displayed a half-maximal inhibitory concentration (IC50) in series [2] of 3.26 nM.
In the case of `COc1ccc(S(=O)(=O)N(CC(C)C)CC(O)C(Cc2ccc(NCc3ccc(Cl)cc3-c3sc4c(c3C(=O)O)CC(C)(C)CC4)cc2)NC(=O)OC2COC3(C)OCCC23)cc1` (stereo not drawn) [Compound I-563], the rat_CLt in series [1] is recorded as 0.883 mL/min/kg. Further, the IC50 in series [2] was determined as 2.13 nM.
`CC1(C)CCc2sc(-c3ccccc3CNc3ccc(CC(NC(=O)OC4COC5(C)OCCC45)C(O)CN(CC4CCCC4)S(=O)(=O)c4ccc5ncsc5c4)cc3)c(C(=O)O)c2C1` (stereo not drawn) [Compound I-513] returned a rat_CLt in series [1] of 3.23 mL/min/kg. The same compound gave an IC50 in series [2] of 1.76 nM.
The compound `COc1ccc(S(=O)(=O)N(CC(C)C)CC(O)C(Cc2ccc(NCc3cc(-n4ccccc4=O)ccc3-c3sc4c(c3C(=O)O)CC(C)(C)CC4)cc2)NC(=O)OC2COC3(C)OCCC23)cc1` (stereo not drawn) [Compound I-664] gave a rat_CLt in series [1] of 1.5 mL/min/kg. The compound also gave a 50% inhibitory concentration (IC50) in series [2] of 1.86 nM.
In series [1], `COc1ccc(S(=O)(=O)N(CC(C)C)CC(O)C(Cc2ccc(NCc3cc(C4=CCCCC4)ccc3-c3sc4c(c3C(=O)O)CC(C)(C)CC4)cc2)NC(=O)OC2COC3(C)OCCC23)cc1` (stereo not drawn) [Compound I-727] registered a rat_CLt of 0.0528 mL/min/kg. Moreover, the IC50 in series [2] was 3.38 nM.
With `COc1ccc(S(=O)(=O)N(CC(C)C)CC(O)C(Cc2ccc(N(C)Cc3cccc(C(F)(F)F)c3-c3sc4c(c3C(=O)O)CC(C)(C)CC4)cc2)NC(=O)OC2COC3(C)OCCC23)cc1` (stereo not drawn) [Compound I-537], the rat_CLt in series [1] stood at 0.328 mL/min/kg. This compound gave an IC50 in series [2] of 5.5 nM.
The compound `COc1ccc(S(=O)(=O)N(CC(C)C)CC(O)C(Cc2ccc(NCc3cc4ccccc4cc3-c3sc4c(c3C(=O)O)CC(C)(C)CC4)cc2)NC(=O)OC2COC3(C)OCCC23)cc1` (stereo not drawn) [Compound I-581] registered a rat_CLt in series [1] of 0.204 mL/min/kg. The compound also showed a half-inhibitory concentration (IC50) in series [2] of 4.02 nM.
In turn, `COc1ccc(S(=O)(=O)N(CCC(C)C)CC(O)C(Cc2ccc(NCc3ccccc3-c3sc4c(c3C(=O)O)CC(C)(C)CC4)cc2)NC(=O)OC2COC3(C)OCCC23)cc1` (stereo not drawn) [Compound I-475] showed a rat_CLt in series [1] of 2.28 mL/min/kg. Also, it took 2.42 nM to reach half-maximal inhibition in series [2] (IC50).
On to `COc1ccc(S(=O)(=O)N(CC(C)C)CC(O)C(Cc2ccc(N3CCC(Oc4cc(C(F)(F)F)ccc4-c4sc5c(c4C(=O)O)CC(C)(C)CC5)C3)cc2)NC(=O)OC2COC3(C)OCCC23)cc1` (stereo not drawn) [Compound I-579], for which the rat_CLt in series [1] is reported as 1.66 mL/min/kg. In addition, the IC50 in series [2] stood at 4.38 nM.
Turning to `COc1ccc(S(=O)(=O)N(CC(C)C)CC(O)C(Cc2ccc(NCc3cc4ccccc4c(-c4sc5c(c4C(=O)O)CC(C)(C)CC5)n3)cc2)NC(=O)OC2COC3(C)OCCC23)cc1` (stereo not drawn) [Compound I-453], in series [1], the rat_CLt stood at 0.593 mL/min/kg. In series [2], 2.63 nM corresponded to half-maximal inhibition (IC50).
Taken in the same sequence, the figures for `COc1ccc(S(=O)(=O)N(CC(C)C)CC(O)C(Cc2ccc(NCc3cnc4sccc4c3-c3sc4c(c3C(=O)O)CC(C)(C)CC4)cc2)NC(=O)OC2COC3(C)OCCC23)cc1` (stereo not drawn) [Compound I-648] were 0.783 mL/min/kg and 2.31 nM.
For `COc1ccc(S(=O)(=O)N(CC(C)C)CC(O)C(Cc2ccc(N3CCC(Oc4cc5ccccc5cc4-c4sc5c(c4C(=O)O)CC(C)(C)CC5)C3)cc2)NC(=O)OC2COC3(C)OCCC23)cc1` (stereo not drawn) [Compound I-509], the rat_CLt in series [1] amounted to 0.377 mL/min/kg. Also, the concentration for half-maximal inhibition (IC50) in series [2] is 1.96 nM.
`CC1(C)CCc2sc(-c3ccccc3CNc3ccc(CC(NC(=O)OC4COC5(C)OCCC45)C(O)CN(CC4CCCC4)S(=O)(=O)c4ccc5c(c4)OCO5)cc3)c(C(=O)O)c2C1` (stereo not drawn) [Compound I-484] came in with a rat_CLt in series [1] of 1.58 mL/min/kg. In addition, in series [2], the IC50 was 2.43 nM.
In series [1], `COc1ccc(S(=O)(=O)N(CC(C)C)CC(O)C(Cc2ccc(N(C)Cc3occc3-c3sc4c(c3C(=O)O)CC(C)(C)CC4)cc2)NC(=O)OC2COC3(C)OCCC23)cc1` (stereo not drawn) [Compound I-492] yielded a rat_CLt of 17.3 mL/min/kg. In series [2], the half-maximal inhibitory concentration (IC50) amounted to 1.84 nM.
Regarding `CC(C)CN(CC(O)C(Cc1ccc(NCc2ccccc2-c2sc3c(c2C(=O)O)CC(C)(C)CC3)cc1)NC(=O)OC1COC2(C)OCCC12)S(=O)(=O)c1ccc2c(c1)OCO2` (stereo not drawn) [Compound I-465], the rat_CLt in series [1] stood at 0.675 mL/min/kg. This compound also displayed an IC50 in series [2] of 2.97 nM.
Taken in the same sequence, the figures for `CC(C)CN(CC(O)C(Cc1ccc(NCc2ccccc2-c2sc3c(c2C(=O)O)CC(C)(C)CC3)cc1)NC(=O)OC1COC2(C)OCCC12)S(=O)(=O)c1ccc2ncsc2c1` (stereo not drawn) [Compound I-467] were 2.36 mL/min/kg and 2.42 nM.
